In patent EP1140809B1, “NEW BIPHENYL AND BIPHENYL-ANALOGOUS COMPOUNDS AS INTEGRIN ANTAGONISTS” (Bayer HealthCare AG, priority 1998, dated 2000) one finds IC50 data, which are given here for nine compounds.

The subject of one experiment is Smooth muscle cells. The experiment in a line: Smooth muscle cell (SMC) migration test (horizontal, vitronectin-coated plates). In kind it is cell-based, humans or rats. The conditions noted are these: migration on vitronectin, 24 hours at 37°C; human or rat cells not specified. The protocol:
b) Smooth muscle cell (SMC) migration test
Smooth muscle cells from humans or rats were used. The migration of the cells was determined in a horizontal measuring arrangement (Falcon).
The horizontal migration was determined in 6-well plates coated with vitronectin (1 µg/cm^2). The cells were suspended in a medium ([…]-rat smooth muscle cells or MCDB 131 with 0.2% BSA-human smooth muscle cells), inoculated and allowed to grow to confluence. Half of the smooth muscle cell lawn was then scraped off, and the cells were treated with different concentrations of the test compounds. The mixtures were incubated for 24 hours at 37°C in the presence of 5% CO2. After the incubation, the smooth muscle cell migration was determined by measurement of the migration distance and the cell density of the migrated cells.

The next experiment deals with T1, αvβ3 receptor (Homo sapiens, UniProt P05106+P06756).
T1 construct: αvβ3 from human A375 cells were purified according to a procedure described by Wong et al; endogenous in cells; host or cells: human A375 cells; receptor purified from the cells, detergent-solubilised
T1 sequence (P06756 31-889 limits assumed): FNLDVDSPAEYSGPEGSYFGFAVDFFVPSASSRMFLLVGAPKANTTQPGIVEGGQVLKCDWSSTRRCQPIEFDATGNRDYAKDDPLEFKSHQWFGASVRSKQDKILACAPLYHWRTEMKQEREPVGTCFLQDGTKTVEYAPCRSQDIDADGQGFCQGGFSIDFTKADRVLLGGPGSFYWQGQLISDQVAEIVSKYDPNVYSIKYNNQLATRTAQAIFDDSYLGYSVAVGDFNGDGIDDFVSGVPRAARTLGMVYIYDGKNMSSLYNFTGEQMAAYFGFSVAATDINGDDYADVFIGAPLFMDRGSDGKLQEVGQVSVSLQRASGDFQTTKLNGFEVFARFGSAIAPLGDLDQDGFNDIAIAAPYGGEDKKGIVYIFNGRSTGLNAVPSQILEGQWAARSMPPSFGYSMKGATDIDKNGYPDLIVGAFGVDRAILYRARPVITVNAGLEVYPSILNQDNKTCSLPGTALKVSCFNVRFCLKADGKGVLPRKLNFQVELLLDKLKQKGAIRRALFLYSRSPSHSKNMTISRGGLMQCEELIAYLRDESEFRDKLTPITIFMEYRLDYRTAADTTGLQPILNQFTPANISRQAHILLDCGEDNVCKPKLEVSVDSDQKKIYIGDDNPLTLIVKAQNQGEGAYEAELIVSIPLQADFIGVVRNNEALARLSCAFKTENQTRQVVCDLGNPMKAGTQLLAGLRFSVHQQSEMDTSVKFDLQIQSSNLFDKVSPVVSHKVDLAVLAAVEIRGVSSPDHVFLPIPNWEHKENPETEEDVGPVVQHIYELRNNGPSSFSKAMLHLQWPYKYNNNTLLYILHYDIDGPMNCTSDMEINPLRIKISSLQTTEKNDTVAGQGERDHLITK
T1 sequence (P06756 891-1048 partner limits assumed): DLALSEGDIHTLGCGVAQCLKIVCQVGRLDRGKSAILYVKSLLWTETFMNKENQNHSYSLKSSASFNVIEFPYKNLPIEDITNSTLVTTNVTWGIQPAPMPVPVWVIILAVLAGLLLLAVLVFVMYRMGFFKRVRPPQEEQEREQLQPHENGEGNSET
T1 sequence (P05106 27-788): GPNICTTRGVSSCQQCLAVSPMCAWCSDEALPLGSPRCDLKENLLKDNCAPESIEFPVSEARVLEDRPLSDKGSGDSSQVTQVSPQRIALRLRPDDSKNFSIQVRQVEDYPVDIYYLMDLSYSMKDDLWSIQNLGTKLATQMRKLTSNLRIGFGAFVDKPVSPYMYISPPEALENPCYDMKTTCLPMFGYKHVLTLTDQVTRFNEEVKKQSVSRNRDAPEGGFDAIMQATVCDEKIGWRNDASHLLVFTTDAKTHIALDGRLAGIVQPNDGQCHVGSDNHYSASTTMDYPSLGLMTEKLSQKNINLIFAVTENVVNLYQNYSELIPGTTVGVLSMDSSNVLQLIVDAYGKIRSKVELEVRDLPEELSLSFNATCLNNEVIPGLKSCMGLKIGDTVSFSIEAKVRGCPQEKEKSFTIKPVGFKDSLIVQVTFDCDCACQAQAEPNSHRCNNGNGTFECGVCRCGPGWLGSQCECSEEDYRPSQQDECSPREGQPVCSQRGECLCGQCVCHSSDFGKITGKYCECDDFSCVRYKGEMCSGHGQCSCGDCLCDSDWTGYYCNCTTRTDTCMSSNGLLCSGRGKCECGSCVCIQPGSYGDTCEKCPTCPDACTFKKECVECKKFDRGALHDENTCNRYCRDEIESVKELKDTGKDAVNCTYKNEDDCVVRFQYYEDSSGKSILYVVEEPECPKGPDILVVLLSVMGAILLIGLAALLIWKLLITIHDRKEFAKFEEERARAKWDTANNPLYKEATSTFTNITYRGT
The experiment in a line: Binding to the αvβ3 receptor (echistatin displacement, WGA SPA beads). The conditions noted are these: αvβ3 purified from human A375 cells, labelled echistatin, read-out: avb3 IC50. As to the method:
a) Binding to the αvβ3 receptor
10 µl αvβ3 (5 ng) in TBS pH 7.6, 2 mM CaCl2, 1mM MgCl2, 1% n/octylglucopyranoside; 10 µl of the substance to be tested in TBS pH 7.6, 0.1 % dimethylsulfoxide (DMSO), and 45 µl TBS pH 7.6, 2 mM CaCl2, 1 mM MgCl2, 1 mM MnCl2 were each incubated for 1 h at room temperature.

The next experiment has as its target αvβ5 receptor (Homo sapiens, UniProt P06756+P18084). The conditions noted are these: disclosed in WO 98/00395; cited from earlier work.

In general, IC50 refers to the point on the concentration scale where inhibition reaches its midpoint.

Molecules are shown by their SMILES.

Sequence of αvβ5 receptor (P06756 31-889 limits assumed): as the sequence (P06756 31-889 limits assumed) above
Sequence of αvβ5 receptor (P06756 891-1048 partner limits assumed): as the sequence (P06756 891-1048 partner limits assumed) above
Sequence of αvβ5 receptor (P18084 24-799): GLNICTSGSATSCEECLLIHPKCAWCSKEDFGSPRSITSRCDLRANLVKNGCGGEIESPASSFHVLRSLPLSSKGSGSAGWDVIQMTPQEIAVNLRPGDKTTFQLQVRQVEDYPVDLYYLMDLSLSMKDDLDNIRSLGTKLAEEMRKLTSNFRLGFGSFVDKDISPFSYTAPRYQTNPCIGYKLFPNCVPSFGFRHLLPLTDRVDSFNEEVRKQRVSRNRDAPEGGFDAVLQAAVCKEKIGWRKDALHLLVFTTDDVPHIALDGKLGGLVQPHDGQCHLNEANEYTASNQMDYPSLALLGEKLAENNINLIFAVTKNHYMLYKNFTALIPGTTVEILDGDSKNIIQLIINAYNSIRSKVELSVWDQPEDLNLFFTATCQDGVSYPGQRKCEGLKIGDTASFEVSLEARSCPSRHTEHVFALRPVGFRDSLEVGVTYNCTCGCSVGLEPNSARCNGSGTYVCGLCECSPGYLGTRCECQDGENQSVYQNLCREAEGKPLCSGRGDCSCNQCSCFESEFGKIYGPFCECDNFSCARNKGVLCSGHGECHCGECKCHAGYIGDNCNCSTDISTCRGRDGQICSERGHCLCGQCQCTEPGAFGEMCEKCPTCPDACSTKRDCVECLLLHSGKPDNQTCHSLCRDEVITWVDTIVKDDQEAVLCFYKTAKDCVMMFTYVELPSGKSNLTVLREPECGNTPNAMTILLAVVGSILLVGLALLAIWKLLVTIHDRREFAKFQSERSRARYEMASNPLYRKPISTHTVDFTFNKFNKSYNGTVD

Turning to `Cc1cc(C)c(S(=O)(=O)NC(Cc2ccc(-c3cccc(NC(=O)NCc4cccnc4)c3)cc2)C(=O)O)c(C)c1` (racemic) [Example 1.5, (2R,S)-3-[3'-(3-(Pyridin-3-yl-methylureido)-biphenyl-4-yl]-2-[2,4,6-trimethylbenzenesulfonylamino]-propanoic acid], the concentration for half-maximal inhibition (IC50) in the experiment on Smooth muscle cells was determined as 480 nM; at αvβ3 receptor, 5 nM. Regarding `Cc1cc(C)c(S(=O)(=O)NC(Cc2ccc(-c3cccc(NC4=NCCN4)c3)cc2)C(=O)O)c(C)c1` (racemic) [Example 7.1, (2R,S)-3-[3'-(4,5-Dihydro-1H-Imidazol-2-ylamino)-biphenyl-4-yl]-2-(2,4,6-trimethyl-benzenesulfonylamino)-propanoic acid], at αvβ3 receptor, the IC50 was 1.2 nM. In the experiment with Smooth muscle cells, `O=C(O)CC(NS(=O)(=O)c1cccc(-c2cccc(CNCc3nc4ccccc4[nH]3)c2)c1)c1ccccc1` (racemic) [Example 8.1, (3R,S)-3-(3'-{[(1H-Benzoimidazol-2-ylmethyl)-amino]-methyl}-biphenyl-3-sulfonylamino)-3-phenyl-propanoic acid] displayed an IC50 of 300 nM. Turning to `CC1(C)C2CCC1(CS(=O)(=O)NC(Cc1ccc(OCCCC(=O)NC(=N)N)cc1)C(=O)O)C(=O)C2` (centres unmarked) [(I)], the half-inhibitory concentration (IC50) at αvβ5 receptor was 0.16 nM. For `Cc1cc(C)c(S(=O)(=O)N[C@@H](Cc2ccc(-c3cccc(NC(=O)NC4CC4)c3)cc2)C(=O)O)c(C)c1` [Example 1.13, (2S)-3-[3'-(3-Cyclopropyl-ureido)-biphenyl-4-yl]-2-(2,4,6-trimethyl-benzenesulfonylamino)-propanoic acid], the values for the concentration for half-maximal inhibition (IC50) in the experiment on Smooth muscle cells and on αvβ3 receptor were 390 nM and 1.2 nM, respectively. In turn, `CC1(C)C2CCC1(CS(=O)(=O)NC(Cc1ccc(-c3cccc(NC(=O)Nc4cccnc4)c3)cc1)C(=O)O)C(=O)C2` [Example 1.73, (2S)-3-[3'-(3-Pyridin-3-yl-ureido)-biphenyl-4-yl]-2-[(S)-campher-10-yl-sulfonylamino]-propanoic acid] displayed a half-inhibitory concentration (IC50) with Smooth muscle cells of 3 to 40 nM. On to `O=C(O)CNS(=O)(=O)c1cccc(-c2cccc(NC(=O)NCc3ccccn3)c2)c1` [Example 4.1, [3'-(3-Pyridin-2-ylmethyl-ureido)-biphenyl-3-sulfonylamino]-acetic acid], for which the IC50 in the experiment on Smooth muscle cells is 300 nM; on αvβ3 receptor, 33 nM. On to `Cc1cc(C)c(S(=O)(=O)N[C@@H](Cc2ccc(-c3cccc(CNc4ccccn4)c3)cc2)C(=O)O)c(C)c1` [Example 18.1.3, (2S)-2-Mesitylsulfonylamino-3-{3'-[(2-pyridinylamino)-methyl][1,1'-biphenyl]-4-yl}-propanoic acid], for which the half-maximal inhibitory concentration (IC50) in the experiment with Smooth muscle cells is 35 to 80 nM; on αvβ3 receptor, 9 nM.

In the case of `Cc1cc(C)c(S(=O)(=O)N[C@@H](Cc2ccc(-c3cccc(NC(=O)c4ncc[nH]4)c3)cc2)C(=O)O)c(C)c1` [Example 19.1.2, (2S)-3-{3'-[(1H-imidazol-2-ylcarbonyl)amino][1,1'-biphenyl]-4-yl}-2-[(mesitylsulfonyl)amino]-propanoic acid], the values for the IC50 in the experiment on Smooth muscle cells and on αvβ3 receptor were 80 nM and 1 nM, respectively.
